For 29 molecules, IC50 and IC90 results are on record in ChEMBL document CHEMBL4483862, “Open-source discovery of chemical leads for next-generation chemoprotective antimalarials” (2018).

This experiment concerns Plasmodium berghei. Put plainly: Luciferase/luciferin-expressing antifolate-resistant parasites were used to infect a culture of HepG2 cells that were pre-incubated with compounds. Infected hepatocytes emit light due to the luciferase reaction. Assay results are presented as the percent inhibition of light emission compared to control. […]. In kind it is functional. The following applies: sporozoite; for IC90: read-out: LUCIFERASE INFECTION ASSAY - IC90.

Bounds are passed on as bounds.

As for `COc1ccc(-c2csc3ncnc(N4CCN(c5ccccc5[N+](=O)[O-])CC4)c23)cc1`, the IC90 – broadly, the point of the concentration-response curve where the effect stands at 90% – was > 10 µM. Further, the IC50 (as a rule, the concentration that gives 50% inhibition) (HEPG2TOX_HILL_SLOPE 5.61, HEPG2TOX_R_SQUARED 0.324, PBLUC_HILL_SLOPE 1.94, 2.89, PBLUC_R_SQUARED 0.358, 0.293, read-out: LUCIFERASE INFECTION ASSAY - IC50) is 6.64 µM.

With `O=C(Cn1ncc(Cl)c(Cl)c1=O)N1CCc2ccccc21`, the IC90 is > 10 µM. Where the note is “HEPG2TOX_HILL_SLOPE 5.62, HEPG2TOX_R_SQUARED 0.657, PBLUC_HILL_SLOPE 20.9, PBLUC_R_SQUARED 0.129, read-out: LUCIFERASE INFECTION ASSAY - IC50”, the IC50 came out at 9.19 µM.

Consider `NC(Cc1ccc(F)cc1)c1csc(Nc2ncccn2)n1` (stereo not drawn), for which the IC90 was 4.09 µM. Moreover, the IC50 (HEPG2TOX_HILL_SLOPE 5.82, HEPG2TOX_R_SQUARED 0.311, PBLUC_HILL_SLOPE 16.5, PBLUC_R_SQUARED 0.556, read-out: LUCIFERASE INFECTION ASSAY - IC50) is 3.58 µM.

Take `Oc1ccc(Cl)cc1/C=C/c1ccc2cccc(O)c2n1`: the IC90 came out at 6.73 µM. Besides, the 50% inhibitory concentration (IC50) (HEPG2TOX_HILL_SLOPE 5.53, HEPG2TOX_R_SQUARED 0.986, PBLUC_HILL_SLOPE 37.8, PBLUC_R_SQUARED 0.36, read-out: LUCIFERASE INFECTION ASSAY - IC50) was determined as 6.35 µM.

With `Cc1[nH]n(-c2cccc(C(F)(F)F)c2)c(=O)c1-c1cccc(Cl)c1`, the IC90 is > 9.36 µM. Also, the IC50 (HEPG2TOX_HILL_SLOPE 5.8, HEPG2TOX_R_SQUARED 0.928, PBLUC_HILL_SLOPE 3.11, PBLUC_R_SQUARED 0.843, read-out: LUCIFERASE INFECTION ASSAY - IC50) was 6.26 µM.

For the molecule `CCOc1c(Cl)cc(C2CC(=O)N(Cc3ccccc3)c3nc4ccccc4n32)cc1OC` (stereo not drawn), the IC90 was > 10 µM. Further, under “HEPG2TOX_HILL_SLOPE 5.74, HEPG2TOX_R_SQUARED 0.547, PBLUC_HILL_SLOPE 2.97, PBLUC_R_SQUARED 0.551, read-out: LUCIFERASE INFECTION ASSAY - IC50”, the IC50 stood at 5.06 µM.

`O=C(CC(=O)Nc1ccc(Cl)cn1)Nc1ccc(Cl)c(Cl)c1`: the IC90 was determined as 8.05 µM. The IC50 (HEPG2TOX_HILL_SLOPE 5.65, HEPG2TOX_R_SQUARED 0.964, PBLUC_HILL_SLOPE 4.27, PBLUC_R_SQUARED 0.168, read-out: LUCIFERASE INFECTION ASSAY - IC50) is 4.81 µM.

As for `CCn1nnc2cc(C(=O)Nc3cccc(Cl)c3N3CCOCC3)ccc21`, the IC90 was > 10 µM. Besides, the IC50 (HEPG2TOX_HILL_SLOPE 5.65, HEPG2TOX_R_SQUARED 0.159, PBLUC_HILL_SLOPE 1.72, PBLUC_R_SQUARED 0.0547, read-out: LUCIFERASE INFECTION ASSAY - IC50) was found to be 5.31 µM.

For the molecule `Oc1ccc(Cl)cc1/C=N/Nc1cccc(C(F)(F)F)c1`, the concentration for an effect of 90% (IC90) was > 10.5 µM. In addition, under “HEPG2TOX_HILL_SLOPE 5.54, HEPG2TOX_R_SQUARED 0.477, read-out: LUCIFERASE INFECTION ASSAY - IC50”, the IC50 is > 10.5 µM.

As to `COc1cc(OC)cc(-c2cnc3cnc(-c4ccc(CO)cc4)cn23)c1`, the IC90 was > 9.13 µM. Under “HEPG2TOX_HILL_SLOPE 5.84, HEPG2TOX_R_SQUARED 0.257, PBLUC_HILL_SLOPE 9, PBLUC_R_SQUARED 0.405, read-out: LUCIFERASE INFECTION ASSAY - IC50”, the concentration for half-maximal inhibition (IC50) is 7.72 µM.

For `C(=N\Nc1nc2ccccc2[nH]1)/c1sc(N2CCCCC2)nc1-c1cccs1`, the IC90 was > 10 µM. Besides, under “HEPG2TOX_HILL_SLOPE 5.76, HEPG2TOX_R_SQUARED 0.476, PBLUC_HILL_SLOPE 1.87, PBLUC_R_SQUARED 0.581, read-out: LUCIFERASE INFECTION ASSAY - IC50”, the IC50 was found to be 6.38 µM.

On to `COc1ccc(-c2ccnc3n[nH]c(-c4ccc5c(c4)OCO5)c23)cc1OC`, for which the IC90 worked out at 4.36 µM. Also, for the setting “HEPG2TOX_HILL_SLOPE 5.74, HEPG2TOX_R_SQUARED 0.837, PBLUC_HILL_SLOPE 9.49, PBLUC_R_SQUARED 0.381, read-out: LUCIFERASE INFECTION ASSAY - IC50”, the IC50 turned out to be 3.46 µM.

`Cc1sc2ncnc(NC(C)c3ccc(S(C)(=O)=O)cc3)c2c1C` (stereo not drawn): the IC90 was > 10 µM. Besides, where the note is “HEPG2TOX_HILL_SLOPE 5.66, HEPG2TOX_R_SQUARED 0.483, PBLUC_HILL_SLOPE 1.68, PBLUC_R_SQUARED 0.334, read-out: LUCIFERASE INFECTION ASSAY - IC50”, the IC50 came to 6.13 µM.

On to `CNc1nc2cnc(Nc3cccc(Oc4ccccc4)c3)cc2n1-c1ccccc1`, for which the IC90 is > 10 µM. The IC50 (HEPG2TOX_HILL_SLOPE 5.82, HEPG2TOX_R_SQUARED 0.501, PBLUC_HILL_SLOPE 8.19, PBLUC_R_SQUARED 0.453, read-out: LUCIFERASE INFECTION ASSAY - IC50) was 8.37 µM.

In the case of `Cc1cccc(COc2cccc(C(=O)N3CCC(C(=O)NCc4ccccc4)CC3)c2)c1`, the IC90 was > 10 µM. Also, for the setting “HEPG2TOX_HILL_SLOPE 5.74, HEPG2TOX_R_SQUARED 0.455, read-out: LUCIFERASE INFECTION ASSAY - IC50”, the concentration for half-maximal inhibition (IC50) is > 10 µM.

`COc1ccc(OC)c(CCNc2nc3cnc(-c4cccc(Cl)c4)cc3n2C)c1`: the IC90 is 1.4 µM. Also, the IC50 (HEPG2TOX_HILL_SLOPE 5.61, HEPG2TOX_R_SQUARED 0.886, PBLUC_HILL_SLOPE 7.64, PBLUC_R_SQUARED 0.579, read-out: LUCIFERASE INFECTION ASSAY - IC50) was 1.05 µM.

For the molecule `COCCc1ccc(-c2csc(NC(=O)Cc3c[nH]c4ccccc34)n2)cc1`, the IC90 is > 10 µM. In addition, the IC50 (HEPG2TOX_HILL_SLOPE 5.8, HEPG2TOX_R_SQUARED 0.844, read-out: LUCIFERASE INFECTION ASSAY - IC50) is > 10 µM.

`CCCNC(=O)c1c(NC(=O)c2ccc(F)cc2F)nc2ccc(C)cn12`: the IC90 came out at 3.51 µM. The IC50 (HEPG2TOX_HILL_SLOPE 5.63, HEPG2TOX_R_SQUARED 0.519, PBLUC_HILL_SLOPE 14, PBLUC_R_SQUARED 0.432, read-out: LUCIFERASE INFECTION ASSAY - IC50) came out at 2.99 µM.

`CC(C)(C)c1cc2ncc(S(=O)(=O)c3ccc(Cl)cc3)c(N)n2n1`: the concentration for an effect of 90% (IC90) was > 9.04 µM. Where the note is “HEPG2TOX_HILL_SLOPE 5.77, HEPG2TOX_R_SQUARED 0.0253, read-out: LUCIFERASE INFECTION ASSAY - IC50”, the IC50 is > 9.04 µM.

Take `COc1ccc(-c2cc(NC(=O)c3ccc(OCc4c(C)noc4C)cc3)ccc2OC)cc1`: the IC90 is > 10 µM. Further, the IC50 (HEPG2TOX_HILL_SLOPE 5.81, HEPG2TOX_R_SQUARED 0.572, PBLUC_HILL_SLOPE 1.68, PBLUC_R_SQUARED 0.219, read-out: LUCIFERASE INFECTION ASSAY - IC50) is > 10 µM.

Turning to `COc1ccc(NS(=O)(=O)c2ccc3oc(Nc4cc(C)on4)nc3c2)cc1`, the IC90 is 9.75 µM. Under “HEPG2TOX_HILL_SLOPE 5.63, HEPG2TOX_R_SQUARED 0.393, PBLUC_HILL_SLOPE 4.89, PBLUC_R_SQUARED 0.566, read-out: LUCIFERASE INFECTION ASSAY - IC50”, the IC50 stood at 6.22 µM.

Regarding `CCc1ccc(NC(=O)c2ccc(S(=O)(=O)N(C)C)cc2)cc1`, the IC90 is > 9.93 µM. For the same molecule, the IC50 (HEPG2TOX_HILL_SLOPE 5.62, HEPG2TOX_R_SQUARED 0.338, PBLUC_HILL_SLOPE 17.2, PBLUC_R_SQUARED 0.289, read-out: LUCIFERASE INFECTION ASSAY - IC50) amounted to 9.7 µM.

`O=C(Nc1ccc2nc(Cc3ccccc3)nn2c1)NC1CCCCC1`: the IC90 came to 3.6 µM. Also, the IC50 (HEPG2TOX_HILL_SLOPE 5.83, HEPG2TOX_R_SQUARED 0.978, PBLUC_HILL_SLOPE 13.4, PBLUC_R_SQUARED 0.389, read-out: LUCIFERASE INFECTION ASSAY - IC50) is 3.05 µM.

In the case of `Cc1cccc(COc2cccc(C(=O)Nc3cccc(Cn4ccnc4)c3)c2)c1`, the IC90 is > 10 µM. For the setting “HEPG2TOX_HILL_SLOPE 5.55, HEPG2TOX_R_SQUARED 0.818, PBLUC_HILL_SLOPE 3.46, PBLUC_R_SQUARED 0.301, read-out: LUCIFERASE INFECTION ASSAY - IC50”, the IC50 turned out to be 6.78 µM.

For the molecule `O=C1C=C(c2ccccc2)C(=O)N1Nc1ccc(Cl)cc1Cl`, the IC90 is > 9.9 µM. For the same molecule, the IC50 (HEPG2TOX_HILL_SLOPE 5.8, HEPG2TOX_R_SQUARED 0.44, PBLUC_HILL_SLOPE 7.31, PBLUC_R_SQUARED 0.6, read-out: LUCIFERASE INFECTION ASSAY - IC50) came out at 9.05 µM.

On to `c1cnc2ccc(-c3cnc4cnc(-c5ccsc5)cn34)cc2c1`, for which the 90% effect concentration (IC90) is > 10 µM. Further, the IC50 (HEPG2TOX_HILL_SLOPE 5.76, HEPG2TOX_R_SQUARED 0.0288, PBLUC_HILL_SLOPE 1.24, PBLUC_R_SQUARED 0.576, read-out: LUCIFERASE INFECTION ASSAY - IC50) was 3.87 µM.

Take `CCOc1cc(/C=C(/C(=O)NCc2ccc(Cl)cc2)c2nc3ccccc3[nH]2)ccc1OC`: the IC90 was > 10 µM. Also, the concentration for half-maximal inhibition (IC50) (HEPG2TOX_HILL_SLOPE 5.77, HEPG2TOX_R_SQUARED 0.35, PBLUC_HILL_SLOPE 0.685, PBLUC_R_SQUARED 0.126, read-out: LUCIFERASE INFECTION ASSAY - IC50) was > 10 µM.

For `Cc1cc(NCc2cccc(C(F)(F)F)c2)nc(N)n1`, the IC90 is > 10 µM. In addition, the IC50 (HEPG2TOX_HILL_SLOPE 5.66, HEPG2TOX_R_SQUARED 0.531, PBLUC_HILL_SLOPE 2.77, PBLUC_R_SQUARED 0.624, read-out: LUCIFERASE INFECTION ASSAY - IC50) was determined as 5.15 µM.

In the case of `CCN(CC)CCNC(=O)c1c(C)oc2c1C(=O)c1ccccc1C2=O`, the IC90 was 1.15 µM. Where the note is “HEPG2TOX_HILL_SLOPE 5.67, HEPG2TOX_R_SQUARED 0.985, PBLUC_HILL_SLOPE 0.945, PBLUC_R_SQUARED 0.645, read-out: LUCIFERASE INFECTION ASSAY - IC50”, the IC50 is 0.112 µM.
